PubChem BioAssay AID602211 (Sanford-Burnham Center for Chemical Genomics, 2012)
Activity calls are given as the source filed them.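 Rule for the calls: active = mean IC50 at or below 10 µM; inactive = the rest.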

The compounds below were run on H9c2 cardiomyocytes, H2O2 protection, ATPLite viability, 2 h (assay: H2O2-induced H9c2 cell death suppression – ATPLite luminescence, set 2, dose response (AID 602211);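 note: potency is for protection so actives keep ATP signal up against peroxide killing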).

Row | Structure (SMILES) | IC50
1 | CC(C(=O)NC1CCCC1)N(C(=O)Cn1nnc(-c2ccc(F)cc2)n1)c1ccccc1F (stereo not drawn) | 1.68 µM
2 | CC(=O)Nc1cccc(NC(=O)c2cc(-c3cccnc3)nc3ccc(Cl)cc23)c1 | 2.24 µM
3 | CN(C)S(=O)(=O)c1ccc2[nH]cc(/C=C/c3nc4ccccc4c(=O)n3-c3ccccc3)c2c1 | 1.26 µM
4 | C[C@@H]1ON(C)[C@H]2C[C@H]3c4[nH]c5ccc(-c6ccc7c(c6)OCO7)cc5c4CCN3C[C@@H]12 | > 79 µM (inactive)
5 | CCc1nnc(NC(=O)CCC(=O)N2CCN(C3c4ccccc4-c4ccccc43)CC2)s1 | 12.9 µM (inactive)
6 | COc1ccc(OC)c(NC(=O)c2sc3ncnc(N4CCN(c5ccccn5)CC4)c3c2C)c1 | 16.2 µM (inactive)
7 | O=C(Nc1ccc2nc(N3CCOCC3)sc2c1)c1cc2ccccc2o1 | 4.75 µM
8 | COc1cc(NC(=O)c2cc3nc(-c4ccccc4)cc(-c4ccccc4)n3n2)cc(OC)c1OC | 3.87 µM
9 | c1ccc(-c2nc(-n3ccnc3)nc(-n3ccnc3)n2)cc1 | 4.14 µM
10 | O=C1c2ccccc2C(=O)N1CCCCSc1nc2ccccc2c(=O)n1CCCN1CCOCC1 | 8.49 µM
11 | CCCCNC(=O)c1cn(-c2ccc(OCC)cc2)c(=O)c2cc(OC)c(OC)cc12 | > 79 µM (inactive)
12 | O=C(C[C@H]1C/C=C\CC[C@H](Cc2ccc(F)cc2)C(=O)O[C@H](c2ccccc2)CNC1=O)N[C@H](CO)Cc1ccccc1 | > 79 µM (inactive)
13 | c1cncc(-c2nc(NCC3COc4ccccc4O3)c3ccccc3n2)c1 (stereo not drawn) | > 79 µM (inactive)
14 | Cc1nn(C)cc1C(C(=O)NC1CCCCC1)N(C(=O)Cc1cccs1)c1ccc(Cl)cc1 (stereo not drawn) | 8.18 µM
15 | COc1ccccc1NC(=O)COc1ccc(C(=O)OCC(=O)NC(C)(C)C)cc1OC | 13.7 µM (inactive)
16 | CC(=O)Nc1ccc(S(=O)(=O)N(Cc2cccnc2)Cc2cc3ccccc3[nH]c2=O)cc1 | 1.51 µM
17 | COC(=O)c1ccc(C(C(=O)NCc2ccccc2)N(Cc2cccs2)C(=O)c2cnccn2)cc1 (stereo not drawn) | 5.53 µM
18 | COc1cc(/C=N/NC(=O)c2cccnc2)ccc1OS(=O)(=O)c1ccc(F)cc1 | 3.17 µM
19 | CCN(C[C@H]1N[C@@](CC)(C(=O)OC)[C@H]2C(=O)N(Cc3ccccc3)C(=O)[C@@H]12)C(=O)c1ccc(C(C)(C)C)cc1 | > 79 µM (inactive)
20 | Cc1[nH]c2ccccc2c1/C=N/NC(=O)c1cc(-c2ccccc2)n[nH]1 | 2.89 µM
21 | Cc1ccc(NC(=O)c2nc[nH]c2C(=O)NCCCCCCNC(=O)c2[nH]cnc2C(=O)Nc2ccc(C)cc2)cc1 | 3.93 µM
22 | CCN(CC)S(=O)(=O)c1ccc(Nc2nc3ccccc3n3nnnc23)cc1 | 4.92 µM
23 | CC(C)(C)OC(=O)CNC(=O)c1[nH]cnc1C(=O)NCC(=O)OCc1ccccc1 | 0.747 µM
24 | COc1cc2[nH]c(=O)n3nc(-c4ccccc4)nc3c2cc1OC | 11 µM (inactive)

Row | Structure (SMILES) | IC50
25 | C[C@H](CO)N1C[C@H](C)[C@@H](CN(C)S(=O)(=O)c2cccs2)Oc2ccc(NC(=O)Nc3ccccc3)cc2C1=O | 16 µM (inactive)
26 | CCOCCCNC(=O)CCC(=O)NNc1nc2ccccc2c2nc(-c3ccccc3)nn12 | 42.6 µM (inactive)
27 | COc1cc(OC)cc(C(=O)Nc2ccc(-c3nc4ccccc4o3)cc2)c1 | > 79 µM (inactive)
28 | CCOC(=O)C1=C(COC(=O)c2cc(OC)c(OC)c(OC)c2)NC(=O)NC1C (stereo not drawn) | 5.68 µM
29 | CCc1nc2ccc(C(=O)Nc3cc(-c4ccccc4)ccc3OC)cn2c1N(C)Cc1nccs1 | 5.95 µM
30 | COc1cccc(C(=O)Nc2cccc(-c3nnc(-c4ccco4)o3)c2)c1 | > 79 µM (inactive)
31 | Cc1cc(C)cc(OCC(=O)Nc2cccc(-c3nc4ncccc4o3)c2)c1 | > 79 µM (inactive)
32 | COc1ccc(-c2cc(NC(C)=O)c3ncc(-c4ccc(OC)c(OC)c4)n3c2)cc1OC | > 79 µM (inactive)
33 | CN(C(=O)c1sc2nc(N3CCOCC3)c3c(c2c1N)CCCC3)c1ccccc1 | 2.64 µM
34 | CC(=O)Nc1cc(-c2ccccc2)cn2c(-c3cccc(C(C)=O)c3)cnc12 | 8.67 µM
35 | COc1cc2c(cc1OC)CN(c1nc(-c3cccnc3)nc3ccccc13)CC2 | 2.93 µM
36 | COc1cccc(Nc2nc3ccccc3n3cnnc23)c1 | 9.05 µM
37 | COC(=O)c1cccc(Nc2nc(-c3cccnc3)nc3ccccc23)c1 | 7.12 µM
38 | C=CC[C@@H](CC(=O)N[C@H](CO)Cc1ccccc1)C(=O)N[C@@H](COC(=O)[C@@H](CC=C)CC(=O)OC(C)(C)C)Cc1ccccc1 | 12.3 µM (inactive)
39 | NC(=O)c1cc2ccccc2o/c1=N\NC(=O)c1ccc(F)cc1 | 4.67 µM
40 | CC(=O)NCc1ccc(-c2csc(NC(=O)CCc3nc4ccccc4c(=O)[nH]3)n2)s1 | 4.3 µM
41 | CCn1c(=O)cc(OCC(=O)Nc2ccccc2C#N)c2ccccc21 | 11.9 µM (inactive)
42 | C[C@H](CO)N1C[C@H](C)[C@@H](CN(C)S(=O)(=O)c2ccc(F)cc2)Oc2ccc(NC(=O)Nc3ccc4c(c3)OCO4)cc2C1=O | 10.1 µM (inactive)
43 | O=C(CN1CCN(c2ccccn2)CC1)Nc1ccc([N+](=O)[O-])cc1C(=O)Nc1ccccc1F | 7.08 µM
44 | COc1cc(NC(=O)c2c(OC)cccc2OC)ccc1NC(=O)c1cc2ccccc2o1 | 15.1 µM (inactive)
45 | O=CNc1cc(-c2ccc(C(=O)NC3CC3)cc2)cn2c(-c3ccc(F)c(Cl)c3)cnc12 | 5.46 µM
46 | O=C(CNC(=O)c1nc[nH]c1C(=O)NCC(=O)OCc1ccccc1)OCc1ccccc1 | 0.38 µM
47 | COC(=O)c1ccccc1NC(=O)/C=C/c1cc(OC)c(OC)c(OC)c1 | 10.9 µM (inactive)
48 | COc1cccc(/C=N/NC(=O)c2nc(-c3ccccc3)cc(-c3ccccc3)n2)c1 | 1.61 µM

Row | Structure (SMILES) | IC50
49 | CC(OC(=O)c1cc(-c2cccnc2)nc2ccccc12)C(=O)Nc1ccc2ccccc2c1 (stereo not drawn) | 5.97 µM
50 | COC(=O)c1cc2ccccn2c2c(C(=O)OC)c(C(=O)OC)cc1-2 | 2.25 µM
51 | Cc1ccc(NC(=O)c2nc[nH]c2C(=O)NCCCNC(=O)c2[nH]cnc2C(=O)Nc2ccc(C)cc2)cc1 | 1.1 µM
52 | COc1ccc(Cl)cc1NC(=O)CCS(=O)(=O)c1cc2c(cc1C)NC(=O)CO2 | 8.29 µM
53 | CCOc1ncccc1C(=O)Nc1cccc(-c2nc3cccnc3s2)c1 | 3.51 µM
54 | CC(C)(C)NC(=O)COC(=O)c1c2c(nc3ccccc13)CCC2 | 14.6 µM (inactive)
55 | COc1ccccc1OP(=O)(Nc1cccnc1)Oc1ccccc1OC | 2.28 µM
56 | COc1ccc(CCNc2nc(-c3cccnc3)nc3ccccc23)cc1OC | 2.28 µM
57 | CC(=O)Nc1cccc(-c2cc(NC(C)=O)c3ncc(-c4cccc(C(C)=O)c4)n3c2)c1 | 38.4 µM (inactive)
58 | CCCOc1ccc2[nH]c(C(=O)N/N=C/c3cc(OC)c(OC)c(OC)c3)cc2c1 | 4.04 µM
59 | COc1cc(-c2cc(NC(C)=O)c3ncc(-c4cc(OC)c(OC)c(OC)c4)n3c2)cc(OC)c1OC | 3.85 µM
60 | Cc1nn(-c2ccccc2)nc1C(=O)Nc1cccc(C(=O)NC2CC2)c1 | 4.37 µM
61 | Fc1ccc(CSc2ccc3nnc(-c4cccnc4)n3n2)cc1 | 6.22 µM
62 | CCOC(=O)C1CCN(c2cc3c(cc2NC(=O)c2ccc(OC)c(OC)c2)n(C)c(=O)n3C)CC1 | 1.22 µM
63 | CC(C)OCCCNC(=O)CCC(=O)NNc1nc2ccccc2c2nc(-c3ccccc3)nn12 | 19.8 µM (inactive)
64 | COc1cc2nc(C3CCC3)nc(N3CCN(c4ccccn4)CC3)c2cc1OC | > 79 µM (inactive)
65 | CCOc1cc(/C=C/c2ccc3cccc([N+](=O)[O-])c3n2)ccc1OCC(=O)N(C)C | 9.02 µM
66 | COc1cc(NC(=O)c2cc3c(C)nc4ccccc4c3o2)cc(OC)c1OC | 3.36 µM
67 | CC(=O)Nc1cccc(-c2cc(NC=O)c3ncc(-c4cccc(C(C)=O)c4)n3c2)c1 | 22.1 µM (inactive)
68 | O=C(c1cc(=O)[nH]c2ccccc12)N1CCN(S(=O)(=O)c2ccc3ccccc3c2)CC1 | 2.89 µM
69 | CCCCCCn1c(C)nc2c(c1=O)c1nc3ccccc3nc1n2/N=C/c1ccco1 | 4.85 µM
70 | CCOC(=O)N1CCN(C(=O)CSc2nc3c(cnn3-c3ccc(C)cc3)c(=O)[nH]2)CC1 | 2.14 µM
71 | COc1ccc(N(CC(=O)Nc2cccc(C(C)=O)c2)S(=O)(=O)c2ccc(NC(C)=O)cc2)cc1 | 3.03 µM
72 | CC(=O)Nc1ccc(NS(=O)(=O)c2cc(-c3n[nH]c(=O)c4ccccc34)ccc2C)cc1 | 3.65 µM

Row | Structure (SMILES) | IC50
73 | O=C(NCCc1ccccc1Cl)c1ccc2nc3ccccc3c(=O)n2c1 | 7.16 µM
74 | CCOc1ccccc1Nc1nnc(SCc2nnc(-c3cc(OC)c(OC)c(OC)c3)o2)s1 | 9.01 µM
75 | CCOC(=O)C1=C(C)NC(C)=C(C(=O)OCC)C1C(=O)OCC(=O)NC(C)C | 12.9 µM (inactive)
76 | NS(=O)(=O)c1ccc(CCNc2ccn3nc(-c4ccc(OCCN5CCOCC5)cc4)cc3n2)cc1 | 7.72 µM
77 | COc1cc(-c2cc(NC=O)c3ncc(-c4ccc(C(C)=O)cc4)n3c2)cc(OC)c1OC | 3.51 µM
78 | CCOC(=O)C1=C(CC)Nc2ccccc2N=C1NC(=O)c1ccc(S(=O)(=O)N(C)C)cc1 | 4.8 µM
79 | COC(=O)c1ccc(C(=O)OC)c(NC(=O)COC(=O)C23CC4CC(CC(O)(C4)C2)C3)c1 | 3.4 µM
80 | O=C(N/N=C/c1ccc2c(c1)OCO2)c1ccc(NC(=O)c2ccccc2Cl)cc1 | 8.05 µM
81 | CC12C=CC(=O)CC1CCC1C2CCC2(C)C(O)C(O)CC12 (stereo not drawn) | 2.62 µM
82 | COc1ccc(C(=O)O/N=C(/c2ccccc2)c2ccncc2)cc1OC | 10.7 µM (inactive)
83 | O=C(N/N=C/c1ccncc1)c1ccc(COc2cccc3cccnc23)cc1 | 25.3 µM (inactive)
84 | CC(=O)Nc1ccc(Nc2nc(-c3sc(NC(C)=O)nc3C)cs2)cc1 | 12.2 µM (inactive)
85 | O=C(N/N=C/c1ccccn1)c1ccc(NC(=O)c2cccc([N+](=O)[O-])c2)cc1 | 7.34 µM
86 | COc1ccc(C(C(=O)NCc2ccccc2)N(Cc2cccs2)C(=O)c2cnccn2)cc1 (stereo not drawn) | 25 µM (inactive)
87 | CC(=O)c1ccc(-c2cnc3c(NC=O)cc(-c4ccc(C(=O)NC5CC5)cc4)cn23)cc1 | 3.38 µM
88 | COc1ccc(N/C=C(\C#N)c2nc3ccccc3n2C)c(OC)c1 | 3.73 µM
89 | O=C(NC1CCCCC1)C(c1ccc2ncccc2c1)N(Cc1ccco1)C(=O)c1ccc2c(c1)OCCO2 (stereo not drawn) | 10.8 µM (inactive)
90 | COC(=O)c1cccc(S(=O)(=O)N(Cc2ccco2)Cc2cc3cc(OC)ccc3[nH]c2=O)c1 | 42.2 µM (inactive)
91 | Cc1nn2c(-c3cccc(NC(=O)c4ccco4)c3)nnc2c2ccccc12 | 1.66 µM
92 | COc1ccc2o/c(=N/NC(=O)c3cccs3)c(C(N)=O)cc2c1 | 2.29 µM
93 | COc1cc(-c2cc(NC=O)c3ncc(-c4ccc(C(C)=O)cc4)n3c2)ccc1O | 3.61 µM
